From patent US7208517B1, “Endothelin antagonists” (Abbott Labortories, priority 1994, dated 2007)

Assays:
[1] = Determination of plasma protein binding (ultrafiltration, HPLC); format: in vitro ADME; parameters: fraction unbound at 1 h: dose or concentration left out as unconfirmed; conditions: fresh plasma, 1 hour at room temperature, read-out: percent of bound compound (plasma protein binding, % PB) (converted)
Procedure: A stock solution of the test compound in 50% ethanol (2 mg/mL) was diluted 10× into PBS. A 0.4 mL sample of this secondary stock solution was added to 3.6 mL of fresh plasma, and incubated at room temperature for 1 hour. A 1 mL sample of this incubation mixture was transferred to a Centrifree ultrafiltration tube. The sample was centrifuged in a fixed-bucket rotor for approximately 2 min and the filtrate was discarded. The sample was centrifuged for another 15–30 min. A 100 μL sample of the ultrafiltrate was transfered to a micro HPLC sample vial containing […] of HPLC mobile phase and mixed thoroughly. A 50 μL sample was injected and the concentration of drug in the ultrafiltrate was determined by HPLC analysis compared against a standard sample prepared identically in the absence of plasma. Ultrafiltrate concentrations are calculated from a calibration curve. Protein binding is calculated according to the equation: % PB=[1−(Cu/Ci)]*100%
where Cu is the ultrafiltrate concentration and Ci is the initial plasma concentration.

[2] = tested on: male subjects with hormone refractory prostate cancer; experiment: Chromagranin-A levels in serum of treated subjects; format: in vivo, human; conditions: 2.5 mg/day
Procedure: Studies were performed on male subjects with asymptomatic hormone refractory prostate cancer with rising PSA levels and on male subjects with symptomatic hormone refractory prostate cancer with rising PSA levels and pain. Subjects in the phase II studies had castrate levels of testosterone, either due to pharmacologic intervention, via leuprolide (Lupron®) or goserelin (Zoladex®), or via surgical castration. Subjects received ABT-627 or placebo. The following tests were conducted:
ABT-627 was formulated in 2.5 and 10 mg doses. An oral liquid formulation of ABT-627 was also prepared as follows: 1 mg/ml ABT-627, 50% glycerin, 14% alcohol, and water. Matching placebos were also provided.
The effect of ABT-627 adminstration on Chromagranin-A levels in human serum samples was determined by proprietary assay conducted at the Nichols Institute. The procedure is a two site chemiluminescence assay (ICMA) using one monoclonal antibody conjugated with biotin, another monoclonal antibody labeled with an acridinium ester, and an avidin-coated solid phase. The antibody/Chromagranin-A/antibody complex is bound to the solid phase by the avidin-biotin interaction and unbound materials are removed by washing. The bound, acridinium-labeled material produces light that is detected in a luminometer after addition of triggering agents. The Limit of Detection (LOD) for the assay was 0.07 ng/mL.

[3] = tested on: male subjects with hormone refractory prostate cancer; experiment: Visual Analog Scale (VAS) pain assessment of treated subjects; format: in vivo, human; conditions: independent of the effects of morphine
Procedure: Studies were performed on male subjects with asymptomatic hormone refractory prostate cancer with rising PSA levels and on male subjects with symptomatic hormone refractory prostate cancer with rising PSA levels and pain. Subjects in the phase II studies had castrate levels of testosterone, either due to pharmacologic intervention, via leuprolide (Lupron®) or goserelin (Zoladex®), or via surgical castration. Subjects received ABT-627 or placebo. The following tests were conducted: ABT-627 was formulated in 2.5 and 10 mg doses. An oral liquid formulation of ABT-627 was also prepared as follows: 1 mg/ml ABT-627, 50% glycerin, 14% alcohol, and water. Matching placebos were also provided. […] The log also contained a table on which was recorded all daily pain medication consumed by the patient. […] Clinical personnel who received the logs measured the score by measuring the distance (in mm) from the “no pain” end mark to the point where the subject's line crossed the VAS line. […] The weekly VAS scores were calculated excluding the lowest and highest score for each week and averaging the remaining five scores. […] The duration of the response, defined as the time from baseline to the last weekly assessment for which the responder definition was satisfied, was analyzed using the Kaplan-Meier methodology and logrank test.

| SMILES | fraction unbound at 1 h [1] | average change from baseline for Chromagranin-A (AUC, FIG. 8) [2] | VAS scores, pain (AUC, FIG. 3) [3] |
| --- | --- | --- | --- |
| CCCCN(C(=O)CN1CC(c2ccc3c(c2)OCO3)C(C(=O)O)C1c1ccc(OC)cc1)c1cccnc1 (stereo not drawn) [compound 531] | 0.08 |  |  |
| CCCCCN(CCCC)C(=O)CN1C[C@H](c2ccc3c(c2)OCO3)[C@@H](C(=O)O)[C@@H]1c1ccc(OC)cc1 [ABT-627] |  | the average change from baseline for Chromagranin-A was higher | VAS scores showed a decrease in pain |
